Measurements published in patent publication US8258128B2, “Organic compounds” (Novartis AG, priority 2006, dated 2012).
Where a name gives a salt, the structure may show the parent alone.

Key:
[1] = tested on: established Adjuvant-induced arthritis in rats; test: Established adjuvant-induced arthritis in rats (therapeutic dosing schedule); format: in vivo, rat; conditions: 1 mg/kg/day p.o., 7 day treatment (Table 7)
Description: Adjuvant arthritis can be treated using two different dosing schedules; either starting at the time of immunization with adjuvant (prophylactic dosing) or from day 15 when the arthritic response is already established (therapeutic dosing). It is more difficult to inhibit adjuvant arthritis with the therapeutic dosing schedule as compared to the prophylactic schedule. Both versions of adjuvant arthritis are, however, extremely sensitive to the effects of both non-selective COX inhibitors and COX 2 selective inhibitors where 70-90% inhibition of swelling can be achieved at appropriate doses. These models may be predictive for some of the processes thought to be relevant in rheumatoid arthritis.
Method: Female Wistar rats weighing 150-170 g (housed in standard conditions, 5 animals per cage, with food and water ad libitum) are injected i.d. at the base of the tail with 0.1 ml of mineral oil containing 0.6 mg of lyophilized heat-killed Mycobacterium tuberculosis. The rats are treated orally with COMPOUND A or placebo formulation from day 15 to day 22 (therapeutic dosing schedule) or with COMPOUND A from day 0 to day 14 after immunization (prophylactic dosing schedule). At the end of the experiment, the swelling of the tarsal joints is measured by means of a micro-caliper. For the comparison study to Diclofenac both compounds are given from day 15 to day 29 with readouts at day 22 and 29. Percentage inhibition of paw swelling is calculated by reference to placebo treated arthritic animals (0% inhibition) and placebo treated normal animals (100% inhibition). Five animals are used per group. Data are analyzed using Kruskal-Wallis non-parametric ANOVA followed by Dunn's Multiple Comparison test.

[2] = tested on: collagen-induced arthritis in the rats; test: Collagen-induced arthritis in the rats, hind paw swelling; format: in vivo, rat
Description: Animal models of RA need to reflect at least some of the features found in human RA (Billingham et al., 1979). Collagen-induced arthritis (CIA) has been proposed to meet these requirements (Durie et al., 1994). Especially the similarity in the joint pathophysiology makes this animal model most attractive for the evaluation of anti-rheumatic drugs (Takeshita et al., 1997). Synovial hyperplasia, which is an integral part of the disease, parallels the migration of leukocytes into the joint space; erosion and destruction of the cartilage surface can also be found (Holmdahl et al., 1985). The rat CIA, originally described by Trentham et al. (1977), was established and extensive studies with CsA were done, including three-dimensional magnetic resonance imaging (MRI) and histology (Beckmann et al., 1995; 1998). Differences in the susceptibility of several rat strains for the development of the disease have been reported (Cremer et al., 1995; Kamada et al., 1997; Knoerzer et al., 1997).
(§1) Method: For this study, COMPOUND A and COX-inhibitor Diclofenac are dissolved in a solvent containing 5% of glucose (5 ml/kg). Compounds are given orally once a day. Female rats of the WAGxBUF/F1 crossbred strain (weight 130 g) are used. The animals are divided into several groups, one placebo group (N=8), and four treatment groups (each N=7-8). Treatment starts on peak of disease (day 0) and continues for 11 days. Swelling is assessed at regular time intervals by measuring the external thickness of the hind paws in the region of the metatarsals using a micro-caliper. Tissue samples for histological evaluation are obtained at the end of the in vivo experiment, 5 h after the last oral dose of COMPOUND A or placebo on day 11.
Results shown are means±SEM of groups of each 4-8 animals of paw diameters in mm on day-12 (before the immunization with Type II collagen in incomplete Freund's adjuvant), day 0 (start of treatment) and day 11 (end of treatment).
The data shown represent the ability of the treatment (COMPOUND A at 4 different increasing doses) to reduce the volume of the hind paw measured at day 2, day 7 and day 11.

[3] = tested on: collagen-induced arthritis in the rats; test: Collagen-induced arthritis in the rats, histological evaluation of hind paws; format: in vivo, rat; conditions: 1 mg/kg/day p.o., day 11
Procedure: as §1
Hind paws from control arthritic rats (vehicle-treated), taken post-mortem at the end of day 11 of the treatment, obtained relatively high histological scorings compared to histological scores of animals treated with COMPOUND A (0.3, 1, 3 and 9 mg/kg) or Diclofenac (1 mg/kg).

[4] = tested on: rat carrageenan edema model; test: Carrageenan edema in the rat (paw swelling); format: in vivo; conditions: for % inhibition of paw swelling: 3 mg/kg p.o.
Procedure: Carrageenan edema in the rat: The effects of COMPOUND A are investigated in the carrageenan edema model. In this model an acute paw swelling is induced by the sub-plantar injection of carrageenan. The paw swelling has a duration of approximately 8 hours and is completely resolved at 24 hours. The model is used to assess anti-inflammatory activities of new therapeutics and is also sensitive to drugs such as COX-inhibitors like Diclofenac, which is used as a positive control compound in the model.
Method: Male OFA rats (5 animals/group) are treated orally with COMPOUND A (1, 3 and 9 mg/kg), Diclofenac (3 mg/kg) or vehicle (placebo formulation). One hour later (0 hours) the rats receive a 100 μl intra-plantar injection of a 1% w/v carrageenan solution in 0.9% saline in the hind paw and the diameter of the paw is measured by means of a micro-caliper. The paw diameter measurements are repeated 3 and 5 hours after injection of the carrageenan. Percentage inhibition of paw swelling at 3 and 5 hours is calculated by reference to vehicle treated animals (0% inhibition).
Edema is induced by a sub-plantar injection of carrageenan in the paw of the rat. Paw diameters are measured at the time of carrageenan injection (0 hours) and at 3 and 5 hours. Compounds are administered 1 hour before the carrageenan injection. COMPOUND A was dosed at 1, 3 and 9 mg/kg p.o. and Diclofenac at 3 mg/kg p.o.

melting point [°C]	Structure (SMILES)	Swelling (mm) ± S.D. [1] [mm]	hind paw diameter, mean ± SEM ([2]; 1 mg/kg group, Day 0 (start of treatment)) [mm]	hind paw diameter, mean ± SEM ([2]; 1 mg/kg group, Day −12 (before immunization)) [mm]	median inhibition of swelling, analysis of the AUC during day 0 to 11 ([2]; 1 mg/kg per day p.o.) [%]	hind paw diameter, mean ± SEM ([2]; 1 mg/kg per day p.o., Day 11 (end of treatment)) [mm]	Bone apposition, effect on histological score [3] [%]	Cartilage damage, effect on histological score [3] [%]	Infiltration of cells, effect on histological score [3] [%]	Loss of PG, effect on histological score [3] [%]	% inhibition of paw swelling ([4]; 3 hrs after carrageenan) [%]	% inhibition of paw swelling ([4]; 5 hrs after carrageenan) [%]	inhibition in the carrageenan edema model ([4]; 3 mg/kg, at both times (3 and 5 hours))
186 to 188	COC1=Nc2cc(Cl)ccc2/C(=C/C(=O)O)c2sccc21 [Compound 1.001, [7-Chloro-10-methoxy-3-thia-9-aza-benzo[f]azulen-(4Z)-ylidene]-acetic acid]												
	O=C(O)Cc1ccccc1Nc1c(Cl)cccc1Cl [Diclofenac, sodium salt of 2-[(2,6-dichlorophenyl)amino]benzeneacetic acid, reference compound]	4.27 ± 0.31	5.300 ± 0.265	3.038 ± 0.024	57±9.9	3.750 ± 0.029	−38	−32	−22	−24	91	87	87-91%
